From publication PMC6838110 (Nature Communications, 2019) come the findings set out here.

In one assay the test system is OV2022 ovarian PDX. Kind of assay: PDX efficacy study. To be noted: olaparib single agent. Format: in vivo, mice. As for the experimental part: (§1) Immunocompromised SCID (C.B-17/IcrHan®Hsd-Prkdc^scid) or Hsd:Athymic Nude-Foxn1^nu female mice (Envigo) were used for tumour implantation. […] When dosed twice daily, the time between the morning and evening doses was 8 h. Targeted irradiation of 2 Gy was delivered over 2 min daily over the first 5 days of treatment. Liposomal doxorubicin (Doxoves) was diluted in physiological saline and intravenously dosed at 2.5 or 5 mg kg^−1 once per week. Olaparib was formulated in 10% DMSO/30% Kleptose and orally dosed at 100 mg kg^−1 once daily. […] Statistical significance was evaluated using a one-tailed t-test. All in vivo studies complied with all relevant ethical regulations for animal testing and research, followed AstraZeneca’s global bioethics policy and received ethical approval from the AstraZeneca ethical committee. HBCx-17 PDX study was carried out at XenTech, France in accordance with French regulatory legislation concerning the protection of laboratory animals. CTG-703, CTG-0828 and CTG-0149 PDX studies were carried out at Champions Oncology, Inc., USA in accordance to the guidelines of the Institutional Animal Care and Use Committee (IACUC) of Champions Oncology and the USA regulatory legislation. CDX and OV2022 PDX studies were conducted in the UK in accordance with UK Home Office legislation, the Animal Scientific Procedures Act 1986 and the Home Office project licences 70/8839, 70/8894 and P0EC1FFDF. […]
(§2) SCID mice were surgically implanted subcutaneously with tumour fragments from donor mice. Tumours were measured (length x width) by bilateral Vernier calliper measurements and tumour volume calculated using Mousetrap software. Mice were randomized into […]
(§3) treatment groups when mean tumour volume reached ~0.2 cm 3. AZD7648 was formulated in 0.5% hydroxypropyl methylcellulose (HPMC)/0.1% Tween80 (HPMC/T) and orally dosed (4–100 mg/kg). When dosed twice daily (bid), the time between the morning and evening doses was 8 hours. Targeted irradiation of 2 Gy was delivered over 2 minutes daily over the first 5 days of treatment. Liposomal doxorubicin (Doxoves) was diluted in physiological saline and intravenously dosed at 2.5 or 5 mg/kg once per week. Olaparib was formulated in 10% DMSO/30% Kleptose and orally dosed at 100 mg/kg once daily.
(§4) HPMC/T. Tumour growth inhibition from start of treatment was assessed by co mparison of the mean change in tumour volume for the control and treated groups, using the Mousetrap application and represented as tumour growth inhibition (TGI). Statistical significance was evaluated using a one-tailed t-test. HBCx-17 PDX study was carried out at XenTech, France in accordance with French regulatory legislation concerning the protection of laboratory animals. CTG-703, CTG-0828 and CTG-0149 PDX studies were carried out at Champions Oncology, Inc., USA in accordance to the guidelines of the Institutional Animal Care and Use Committee (IACUC) of Champions Oncology and the USA regulatory legislation. CDX and OV2022 PDX studies were conducted in the UK in accordance with UK Home Office legislation, the Animal Scientific Procedures Act 1986, and AstraZeneca’s global bioethics policy. Experimental details are outlined in Home […]
(§5) Blood samples were taken via venipuncture of the tail vein. Whole blood was mixed 1: 5 with PBS and centrifuged at 1500g for 3 minutes at 4°C, and the plasma was extracted […]
(§6) was prepared using an appropriate dilution factor and compared against an 11-point standard calibration curve (1–10,000 nM) prepared in DMSO and spiked into bl ank plasma. Acetonitrile (100 µL) was added with the internal standard, followed by centrifugation at 3000 rpm for 10 minutes. Supernatant (50 µL) was then diluted in 300 µL water and analysed with ultra-performance liquid chromatography–tandem mass […]
(§7) Xenograft sample preparation
(§8) Animals were euthanized and tumour samples snap frozen in liquid nitrogen or fixed in formalin and paraffin embedded for subsequent analysis. Tumour pieces were lysed in […]

A further assay deals with CTG-0828 NSCLC PDX. Description: PDX efficacy study. Format: in vivo, mice. To be noted: olaparib single agent. As for the experimental part:
as §1, §2, §3, §4, §5, §6, §7, §8

In the next assay the test system is CTG-0149 H&N PDX. Kind of assay: PDX efficacy study. The class given is in vivo, mice. The following applies: olaparib single agent. The protocol:
as §1, §2, §3, §4, §5, §6, §7, §8

The next assay deals with CTG-703 ovarian PDX. Description: PDX efficacy study. Format: in vivo, mice. To be noted: olaparib single agent. The protocol: as §1, §2, §3, §4, §5, §6, §7, §8
In a further assay the test system is FaDu ATM KO xenografts. Kind of assay: Xenograft efficacy study with olaparib. The class given is in vivo, mice. To be noted: continuous olaparib 100 mg kg−1 qd single agent. As for the experimental part:
Immunocompromised SCID (C.B-17/IcrHan®Hsd-Prkdc^scid) or Hsd:Athymic Nude-Foxn1^nu female mice (Envigo) were used for tumour implantation. […] When dosed twice daily, the time between the morning and evening doses was 8 h. Targeted irradiation of 2 Gy was delivered over 2 min daily over the first 5 days of treatment. Liposomal doxorubicin (Doxoves) was diluted in physiological saline and intravenously dosed at 2.5 or 5 mg kg^−1 once per week. Olaparib was formulated in 10% DMSO/30% Kleptose and orally dosed at 100 mg kg^−1 once daily. […] Statistical significance was evaluated using a one-tailed t-test. […]
Tumours were measured (length x width) by bilateral Vernier calliper measurements and tumour volume calculated using Mousetrap software. […]
HPMC/T. Tumour growth inhibition from start of treatment was assessed by co mparison of the mean change in tumour volume for the control and treated groups, using the Mousetrap application and represented as tumour growth inhibition (TGI). Statistical significance was evaluated using a one-tailed t-test. […]
was prepared using an appropriate dilution factor and compared against an 11-point standard calibration curve (1–10,000 nM) prepared in DMSO and spiked into bl ank plasma. […] Supernatant (50 µL) was then diluted in 300 µL water and analysed with ultra-performance liquid chromatography–tandem mass […]

For a further assay, the system named is HBCx-17 TNBC PDX. Description: PDX efficacy study. The class given is in vivo, mice. To be noted: olaparib 100 mg kg−1 qd single agent. The protocol: as §1, §2
treatment groups when mean tumour volume reached ~0.2 cm 3.

The test system of the next assay is FaDu ATM KO cells. Description: Clonogenic survival (colony formation assay). Format: cell-based. To be noted: Homo sapiens. As for the experimental part:
(§9) Graphs represent percentage viable cells ± SD following 7 days' treatment relative to DMSO vehicle-treated controls from one representative experiment of at least three independent experiments. […] Mean pGI50 (-log [GI50]) ± SEM, geometric mean GI50, number of experimental repeats (n) and 95% confidence interval are described. C) Colony formation assay was performed on FaDu and A549 ATM KO and WT cells treated with increasing concentrations of olaparib. Graphs represent percentage surviving fraction of colonies ± SD following 10- 14 days' treatment relative to DMSO vehicle-treated control from one representative experiment of three independent experiments. […] Optimized image algorithms were used to evaluate phenotypic response s using nuclear staining with Hoechst (cell cycle, micronuclei, nuclear fragmentation ), as well as to quantify the response of DNA damage response markers (foci numbers and total signal […] SDS-PAGE and Western blotting of samples Protein lysates were generated by scraping cells in radioimmunoprecipitation assay […] and protease and phosphatase inhibitor tablets (Roche) following compound treatments at indicated time points. Protein concentration was determined using the BCA protein assay kit (ThermoFisher). Proteins were separated by SDS -PAGE on NuPAGE® 4-12% […] membranes using the iBlot ® dry blotting system (ThermoFisher). […]

Assay [1] concerns FaDu and A549 ATM KO cells. Description: Colony formation assay, olaparib, ATM KO versus WT isogenic pairs. To be noted: olaparib single agent. The class given is cell-based, human. The protocol: as §9

Take `O=C(c1cc(Cc2n[nH]c(=O)c3ccccc23)ccc1F)N1CCN(C(=O)C2CC2)CC1` [olaparib]: the TGI with OV2022 ovarian PDX stood at 65%; in the assay with CTG-703 ovarian PDX, 100%; in the assay on FaDu ATM KO xenografts it was 50%. Moreover, the “sensitivity of the model to olaparib” value with CTG-0828 NSCLC PDX and with CTG-0149 H&N PDX was “insensitive” in each case. The same compound yielded a tumour regression in the assay on HBCx-17 TNBC PDX of 42%. Moreover, the “tumours regressed on day 70 (last day of dosing)” value in the assay with HBCx-17 TNBC PDX is “four tumours out of nine”; in the assay on HBCx-17 TNBC PDX (listed as Olaparib), 4/9. In the assay on FaDu ATM KO cells, this compound displayed an IC50 of around 0.1 µM. Also, the “greater sensitivity of ATM KO cells compared with isogenic WT cells” value in assay [1] is above 10 fold.

The IC50 is the concentration that gives 50% inhibition. Low values mean higher potency, high ones lower potency.
